Entries after “also recorded” stand apart in the source; their conditions may differ.
Key:
Type in all cases: cell-based
[1] = tested on: bovine embryonic fibroblasts; assay: Insoluble collagen from culture dish (Total Collagen Assay kit, hydroxyproline); conditions: different concentrations of GM6001 (0-500 μM in text, 0-200 μM in legend), 4 days
Experimental: 24 hours after seeding the medium was changed to basal medium with different concentration (0-500 μM) of GM6001, a matrix metalloprotease (MMP) inhibitor which prevents C-terminal cleavage of the procollagen.
• 1. Wash the cells once with PBS.
(§1) 35,000 bovine embryonic fibroblast cells/cm^2 were seeded in standard medium (DMEM+10% Fetal Bovine Serum+1% penicillin\streptomycin). 24 hours after seeding the medium was changed to basal medium with different concentration (0-500 μM) of GM6001, a matrix metalloprotease (MMP) inhibitor which prevents C-terminal cleavage of the procollagen. After 4 days, the medium was collected from the cultures and measured for soluble collagen levels. Insoluble collagen was collected from the culture dish its level was measured.

[2] = tested on: bovine embryonic fibroblasts; assay: Secreted soluble collagen in growth medium (QuickZyme soluble collagen assay, Sirius Red)
Experimental: (§2) 35,000 bovine embryonic fibroblast cells/cm^2 were seeded in standard medium. 24 hours later the medium was changed to basal medium and the soluble collagen was measured on day 6 or 7. Likewise, 20,000 stromal cells/cm^2 were seeded in basal medium. 24 hours later the cells were transfected with siRNA targeted to LOX or a scramble sequence as a control. After 24 hours the medium was changed to fresh basal medium. The soluble collagen levels were measured daily from day 3 until day 7.
(§3) Secreted soluble collagen was measured using QuickZyme soluble collagen assay which is based on binding of the dye Sirius Red to collagen. Following binding of the dye, the collagen-dye complex precipitates, resulting in a colored pellet. The pellet is re-suspended in an alkaline solution and the absorbance is measured in a plate reader.
• 1. Conditioned culture medium is collected and centrifuged for 10 minutes at 1,500 g (at 4° C.) to remove cell debris. • 2. The supernatant is diluted in a dilution buffer placed in the assay microplate (V-shaped plate). • 3. The collagen standard solution is diluted in serial dilutions in the dilution buffer and placed in the assay microplate (V-shaped plate). • 4. Sirius red dye is added to the samples and to the standards and mixed. • 5. The plate is centrifuged for 60 minutes at 3000×g at 4° C. to precipitate the pellet. • 6. The pellets are washed and resuspended.
(§4) The resuspended colored solution is transferred to the reading microplate (flat bottom) and read at 540 nm.
35,000 bovine embryonic fibroblast cells/cm^2 were expanded in standard medium (DMEM+10% Fetal Bovine Serum+1% penicillin\streptomycin). 24 hours after seeding their medium was changed to basal medium with 50 μM GM6001.
as §1

[3] = tested on: bovine stromal cells; assay: Secreted soluble collagen in growth medium of stromal cells (QuickZyme soluble collagen assay)
Experimental: as §2, §3
• 1. Conditioned culture medium is collected and centrifuged for 10 minutes at 1,500 g (at 4° C.) to remove cell debris. • 2. The supernatant is diluted in a dilution buffer placed in the assay microplate (V-shaped plate). • 3. The collagen standard solution is diluted in serial dilutions in the dilution buffer and placed in the assay microplate (V-shaped plate). • 4. Sirius red dye is added to the samples and to the standards and mixed. • 5. […]
as §4

[4] = tested on: Bovine LOX (lysyl oxidase) gene; assay: RT-PCR analysis of LOX mRNA level after siRNA transfection; conditions: 20 nM siRNA, bovine stromal cells, 24 hours after transfection, n=2
Experimental: The Bovine LOX (lysyl oxidase) gene (Gene ID: 280841) was knockdown using siRNA. 20,000 bovine stromal cells/cm^2 were transfected with 20 nM of siRNA sequence against LOX (5′[…]3′; SEQ ID NO:1) or a scramble sequence (5′[…]3′; SEQ ID NO:2) as control, using Dharmacon DharmaFECT 1 transfection reagent. 24 hours after transfection the cells were lysed for RNA extraction. The RNA was reverse transcribed to cDNA and 5 ng/μl were subjected to RT-PCR with the following primers: […]

Row | Compound | insoluble collagen level with increasing GM6001 concentration [1] | amount of secreted soluble collagen for 10^6 bovine embryonic fibroblasts ([2]; 50 μM GM6001) | increase of soluble collagen in the growth medium vs basal medium ([2]; 50 μM GM6001, 72 hours) | amount of soluble collagen in the growth medium ([2]; Basal medium + 50 μM GM6001, 72 hours, N=6, basal medium alone 375) | secreted soluble collagen in the growth medium (in words) ([2]; basal medium supplemented with GM6001, bovine embryonic fibroblasts) | maximum soluble collagen level ([2]; basal medium with 50 μM GM6001, measured daily, maximum on the 7th day) | soluble collagen level with increasing GM6001 concentration ([2]; different concentrations of GM6001, 4 days, increase up to about 50 μM) | soluble collagen levels in the growth medium, LOX silencing combined with GM6001 ([3]; LOX siRNA-treated bovine stromal cells, basal medium with 50 μM GM6001) | secreted soluble collagen in the growth medium (in words) ([3]; basal medium supplemented with GM6001, bovine stromal cells) | reduction of LOX expression (mRNA) relative to scramble control [4]
1 | CNC(=O)[C@H](Cc1c[nH]c2ccccc12)NC(=O)[C@@H](CC(=O)NO)CC(C)C [GM6001, Ilomastat] | decrease; also recorded: decreasing | about 1 mg | more than 2 folds | 825 μg/10^6 cells | enhanced | ~900 μg\10^6 cells | enriches; also recorded: increased | increased; also recorded: enhanced | enhanced | –
2 | 5′GCUGAUAACCAGACGGCACUU3′ (listed as RNA, chemistry not given here) [siRNA sequence against LOX] | – | – | – | – | – | – | – | – | – | 80%

Source: US20230312687A1, “CELL-FREE ANIMAL COLLAGEN, METHODS OF PRODUCTION AND USES THEREOF” (ALEPH FARMS LTD., priority 2020, published 2023)
